Reference: US20260207585A1, “METHODS AND COMPOSITIONS FOR THE TREATMENT OF PARKINSON'S DISEASE, HUNTINGTON'S DISEASE, AMYOTROPHIC LATERAL SCLEROSIS, AND LEARNING DISORDERS” (Cedars-Sinai Medical Center, priority 2022, published 2026)
Where two headings read alike, the source gives them in different places.

Tests used:
G9a = target: T1, G9a (Homo sapiens, UniProt Q96KQ7); experiment: Methyltransferase inhibition panel: G9a; type: biochemical
T1 sequence (Q96KQ7 1-1210): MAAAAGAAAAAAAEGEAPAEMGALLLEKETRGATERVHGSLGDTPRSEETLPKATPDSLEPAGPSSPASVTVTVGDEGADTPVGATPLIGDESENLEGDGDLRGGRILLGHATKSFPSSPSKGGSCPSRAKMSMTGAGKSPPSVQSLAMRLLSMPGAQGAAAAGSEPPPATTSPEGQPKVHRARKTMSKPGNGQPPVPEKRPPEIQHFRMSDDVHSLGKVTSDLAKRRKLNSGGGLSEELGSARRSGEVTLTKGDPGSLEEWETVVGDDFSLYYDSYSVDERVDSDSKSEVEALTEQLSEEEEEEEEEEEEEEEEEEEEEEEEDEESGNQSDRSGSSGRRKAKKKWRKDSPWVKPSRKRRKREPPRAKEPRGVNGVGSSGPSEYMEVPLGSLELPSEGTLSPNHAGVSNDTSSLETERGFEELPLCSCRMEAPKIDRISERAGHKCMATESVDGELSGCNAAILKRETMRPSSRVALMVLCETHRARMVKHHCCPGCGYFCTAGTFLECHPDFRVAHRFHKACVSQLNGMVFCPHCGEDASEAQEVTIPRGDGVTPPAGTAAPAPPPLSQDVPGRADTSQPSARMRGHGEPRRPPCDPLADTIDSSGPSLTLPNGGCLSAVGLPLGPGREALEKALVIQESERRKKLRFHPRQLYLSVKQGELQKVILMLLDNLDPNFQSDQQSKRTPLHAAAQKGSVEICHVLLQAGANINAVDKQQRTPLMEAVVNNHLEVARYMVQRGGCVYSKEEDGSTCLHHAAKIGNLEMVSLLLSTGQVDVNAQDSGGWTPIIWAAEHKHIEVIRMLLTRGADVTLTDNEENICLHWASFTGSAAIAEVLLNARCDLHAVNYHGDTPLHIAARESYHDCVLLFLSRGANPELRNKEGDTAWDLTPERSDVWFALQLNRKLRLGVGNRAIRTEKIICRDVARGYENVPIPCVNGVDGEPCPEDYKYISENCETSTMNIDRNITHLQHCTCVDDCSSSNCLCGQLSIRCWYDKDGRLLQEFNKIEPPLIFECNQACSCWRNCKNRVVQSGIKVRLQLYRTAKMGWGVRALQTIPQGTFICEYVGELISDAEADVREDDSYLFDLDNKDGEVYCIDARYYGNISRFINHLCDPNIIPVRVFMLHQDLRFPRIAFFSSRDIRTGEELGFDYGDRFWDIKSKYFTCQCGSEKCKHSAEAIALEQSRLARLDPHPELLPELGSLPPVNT
Method: (§1) The ability of ETP69 to inhibit methyltransferases was tested.

[1] = tested on: soluble fraction of brain homogenates; experiment: Mass spectrometry proteomics of brain homogenates with IPA; type: in vivo, mice
Method: The results included levodopa (L-dopa), a naturally occurring product that is also a drug for the management of Parkinson's motor symptoms.
Mass spectrometry (MS) analysis on the soluble fraction of brain homogenates extracted from the […] WT and neurodegenerative (AD) mice cohort was performed (DMSO-treated WT mice: n=8; ETP69-treated WT mice: n=7; DMSO-treated AD^+ mice: n=6; ETP69-treated AD^+ n=6).
The effects of ETP69 on the molecular pathways related to neuroprotection and cognitive function was assessed.

DNMT3b = DNMT3b (Homo sapiens, UniProt Q9UBC3); experiment: Methyltransferase inhibition panel: DNMT3b; type: biochemical
Method: as §1

PRMT8 = PRMT8 (Homo sapiens, UniProt Q9NR22); experiment: Methyltransferase inhibition panel: PRMT8; type: biochemical
Chain of PRMT8 (Q9NR22 whole entry): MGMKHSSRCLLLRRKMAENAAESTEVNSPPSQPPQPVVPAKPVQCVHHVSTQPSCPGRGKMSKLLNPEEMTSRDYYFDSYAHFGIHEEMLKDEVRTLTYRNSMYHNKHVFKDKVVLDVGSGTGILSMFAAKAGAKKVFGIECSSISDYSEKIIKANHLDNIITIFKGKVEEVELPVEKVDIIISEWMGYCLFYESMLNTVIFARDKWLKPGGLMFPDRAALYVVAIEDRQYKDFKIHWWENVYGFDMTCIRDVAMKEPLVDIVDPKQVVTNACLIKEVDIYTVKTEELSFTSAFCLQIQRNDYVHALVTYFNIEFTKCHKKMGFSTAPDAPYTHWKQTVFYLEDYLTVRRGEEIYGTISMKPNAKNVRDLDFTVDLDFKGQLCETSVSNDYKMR
Method: as §1

SUV39H2 = SUV39H2 (Homo sapiens, UniProt Q9H5I1); experiment: Methyltransferase inhibition panel: SUV39H2; type: biochemical
Chain of SUV39H2 (Q9H5I1 whole entry): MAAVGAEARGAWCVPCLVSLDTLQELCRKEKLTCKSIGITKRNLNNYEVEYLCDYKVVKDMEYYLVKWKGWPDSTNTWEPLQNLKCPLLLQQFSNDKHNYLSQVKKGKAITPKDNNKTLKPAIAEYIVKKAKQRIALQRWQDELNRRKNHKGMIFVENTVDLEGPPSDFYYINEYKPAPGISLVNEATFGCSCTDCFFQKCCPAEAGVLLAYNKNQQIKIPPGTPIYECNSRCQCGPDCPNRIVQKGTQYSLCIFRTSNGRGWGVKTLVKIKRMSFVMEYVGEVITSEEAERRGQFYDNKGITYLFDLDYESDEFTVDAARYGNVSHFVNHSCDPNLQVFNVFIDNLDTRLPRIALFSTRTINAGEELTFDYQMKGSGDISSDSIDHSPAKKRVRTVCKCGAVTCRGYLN
Method: as §1

MLL2 Complex = MLL2 Complex (Homo sapiens, UniProt O14686); experiment: Methyltransferase inhibition panel: MLL2 Complex; type: biochemical
Chain of MLL2 Complex (O14686 5319-5537): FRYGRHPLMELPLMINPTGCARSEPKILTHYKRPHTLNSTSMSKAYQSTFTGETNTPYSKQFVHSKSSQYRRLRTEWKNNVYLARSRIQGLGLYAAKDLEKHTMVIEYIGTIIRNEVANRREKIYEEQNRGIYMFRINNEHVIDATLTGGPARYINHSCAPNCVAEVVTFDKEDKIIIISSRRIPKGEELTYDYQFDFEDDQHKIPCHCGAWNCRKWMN
Chain of MLL2 Complex (Q9UBL3 whole entry, further chain): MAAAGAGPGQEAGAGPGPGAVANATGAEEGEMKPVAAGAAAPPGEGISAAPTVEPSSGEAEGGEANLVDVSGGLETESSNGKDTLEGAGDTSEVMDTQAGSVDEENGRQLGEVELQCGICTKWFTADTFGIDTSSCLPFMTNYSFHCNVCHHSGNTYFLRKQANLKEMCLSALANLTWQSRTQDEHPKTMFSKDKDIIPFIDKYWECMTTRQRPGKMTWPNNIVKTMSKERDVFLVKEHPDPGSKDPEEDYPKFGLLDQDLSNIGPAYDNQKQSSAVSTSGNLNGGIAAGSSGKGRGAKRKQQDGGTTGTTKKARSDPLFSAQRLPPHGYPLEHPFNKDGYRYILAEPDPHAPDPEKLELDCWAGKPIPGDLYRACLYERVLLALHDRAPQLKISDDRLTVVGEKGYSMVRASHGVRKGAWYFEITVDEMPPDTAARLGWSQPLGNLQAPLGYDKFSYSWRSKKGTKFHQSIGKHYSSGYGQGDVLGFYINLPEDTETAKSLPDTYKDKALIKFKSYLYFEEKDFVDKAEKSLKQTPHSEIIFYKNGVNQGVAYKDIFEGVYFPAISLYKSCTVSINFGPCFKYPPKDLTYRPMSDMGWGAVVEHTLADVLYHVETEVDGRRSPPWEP
Chain of MLL2 Complex (Q9C005 whole entry, further chain): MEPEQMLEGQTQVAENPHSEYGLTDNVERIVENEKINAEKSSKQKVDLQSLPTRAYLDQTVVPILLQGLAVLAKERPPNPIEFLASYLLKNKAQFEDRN
Chain of MLL2 Complex (Q15291 whole entry, further chain): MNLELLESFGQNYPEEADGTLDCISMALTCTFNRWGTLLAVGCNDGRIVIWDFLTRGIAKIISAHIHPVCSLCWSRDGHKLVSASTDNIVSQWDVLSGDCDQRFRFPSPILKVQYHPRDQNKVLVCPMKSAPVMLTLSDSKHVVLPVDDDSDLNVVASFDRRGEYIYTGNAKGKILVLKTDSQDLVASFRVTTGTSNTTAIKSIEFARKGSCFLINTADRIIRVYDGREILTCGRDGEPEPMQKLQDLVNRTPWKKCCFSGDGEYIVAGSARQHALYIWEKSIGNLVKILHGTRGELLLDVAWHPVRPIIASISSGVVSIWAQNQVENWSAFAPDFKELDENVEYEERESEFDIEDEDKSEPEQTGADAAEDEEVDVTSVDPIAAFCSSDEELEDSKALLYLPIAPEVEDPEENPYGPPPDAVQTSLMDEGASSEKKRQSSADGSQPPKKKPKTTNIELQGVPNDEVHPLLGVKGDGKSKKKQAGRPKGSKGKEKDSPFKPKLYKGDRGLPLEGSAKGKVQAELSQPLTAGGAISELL
Method: as §1

BDNF and VGF pathways = experiment: Gene expression in treated mice (BDNF and VGF pathways); type: in vivo; conditions: mice treated with ETP69 vs DMSO
Method: Gene expression was measured in mice treated with ETP69 and DMSO. As depicted in FIG. 3, genes in the BDNF and VGF pathways were activated. These pathways are consistent with protective neurotrophic support. This pathway correlates with reduced H3K9me3 and improved cognition. FIG. 4A depicts genes in the BDNF pathway inhibited (left) and activated (right) by ETP69. The inactivated genes are quantified in FIGS. 4B-4F. The activated genes are quantified in FIGS. 4G-4M.

dendritic spines = experiment: Golgi-Cox staining of brain, dendritic spine quantification; type: in vivo, mice
From the text: The brain of 18-month old mice was stained with the Golgi-Cox method to detect the cytoarchitecture and morphology of neurons. FIG. 1A depicts representative images of the cingulate cortex (cc) of mice administered DMSO or ETP69. FIG. 1B depicts a representative hippocampus. FIG. 1C depicts a representative neuron from a DMSO treated and ETP69 treated hippocampus. FIG. 1D is a schematic of the quantification of neuronal spines.
The brains were stained with the Golgi-Cox method to detect the cytoarchitecture and morphology of neurons. Representative images are shown of mice treated with DMSO (FIG. 10A-10C) and ETP69 (FIG. 10D-10F). The number of dendritic spines are quantified. […] Further, ETP69 administration reduced epigenetic H3K9me3 repression mark in cell-specific manners. H3K9 expression was reduced in neurons (FIGS. 11A-11B), astrocytes (FIGS. 11C-11D), and microglia macrophages (FIGS. 11E-11F).
Loss of synapses and dendritic spine abnormalities are associated with cognitive decline. To analyze these features in old mice administered ETP69, Golgi-Cox neuronal staining and synaptic marker staining was performed in cerebral cortices and hippocampi. Dendritic spines were classified as thin (filopodia-like and long-thin), stubby, or mushroom spines according to their size and shape, and quantified the spine density from high-magnification photographs.

METTL21A = METTL21A (Homo sapiens, UniProt Q8WXB1); experiment: Methyltransferase inhibition panel: METTL21A; type: biochemical
Chain of METTL21A (Q8WXB1 whole entry): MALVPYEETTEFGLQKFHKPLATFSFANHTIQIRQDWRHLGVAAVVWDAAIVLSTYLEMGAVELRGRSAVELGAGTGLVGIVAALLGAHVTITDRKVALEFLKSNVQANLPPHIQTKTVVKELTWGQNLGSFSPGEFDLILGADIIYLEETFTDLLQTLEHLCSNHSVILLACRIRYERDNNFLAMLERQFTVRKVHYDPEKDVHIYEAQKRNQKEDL
Method: as §1

[2] = read-out: Enzyme % Activity (relative to DMSO controls) Data 1
[3] = read-out: Enzyme % Activity (relative to DMSO controls) Data 2
[4] = 18-month old mice, cingulate cortex (cc) and hippocampus, vs DMSO
[5] = old (18-month-old) mice, 10 mg/kg i.p.

CN1C(=O)[C@@]23C[C@](C)(C#N)[C@H](c4ccc5c(c4)OCO5)N2C(=O)[C@]1(C)SS3 (racemic) [ETP69, Rac-(3S,6S,7S,8aS)-6-(benzo[d][1,3]dioxol-5-yl)-2,3,7-trimethyl-1,4-dioxohexahydro-6H-3,8a-epidithiopyrrolo[1,2-a]pyrazine-7-carbonitrile] was tested, and the remaining activity at 2.5 µM (G9a; [2]) was 40.9%, the remaining activity at 2.5 µM (G9a; [3]) was 38.7% and the “inhibition relative to DMSO controls” value (G9a; summary of Table 1) was “at least 7500”. The “pathways of learning, cognition, quantity of neurons, dendritic growth and branching (IPA)” value ([1]; AD+ mice) was “significantly activated”, the Mapt protein upregulation ([1]; AD+ mice, p=0.0188) was 2.4 fold and the Gfra2 protein ([1]; ETP69-treated mice, p=0.0056) was “significantly increased”. The Lrrn4 protein upregulation ([1]; ETP69-treated versus DMSO-control AD+ mice, p=0.015) was 1.73 fold, the “brain neurotrophic factors (NTFs) expression including BDNF, VGF and levodopa” value ([1]; proteome signatures) was “induced” and the remaining activity at 20 µM (DNMT3b; [2]) was 84.8%. It also gave a remaining activity at 20 µM (DNMT3b; [3]) of 80.9%, a remaining activity at 20 µM (PRMT8; [2]) of 95.7% and a remaining activity at 20 µM (PRMT8; [3]) of 94.7%. The remaining activity at 20 µM (SUV39H2; [2]) was 4.4%, the remaining activity at 20 µM (SUV39H2; [3]) was 4.4% and the “inhibition relative to DMSO controls” value (SUV39H2; summary of Table 1) was “at least 7500”. For the same molecule, the remaining activity at 20 µM (MLL2 Complex; [2]) was 19%, the remaining activity at 20 µM (MLL2 Complex; [3]) was 20.4% and the “inhibition relative to DMSO controls” value (MLL2 Complex; summary of Table 1) was “at least 7500”. For the same molecule, the “genes in the BDNF and VGF pathways” value (BDNF and VGF pathways) was “activated”, the dendritic spines (dendritic spines; [4]) was “increase” and the thin spines (dendritic spines; [4]) was “increase”. The “number of dendritic spines” value (dendritic spines; Example 4 mice, cingulate cortex and hippocampus, vs DMSO) was “significantly increased”, the mushroom-to-total spine ratio (dendritic spines; [5]) was “lower” and the thin-to-total spine ratio (dendritic spines; [5]) was “higher”. For the same molecule, the “increase in the number of dendritic spines” value (dendritic spines; old (18-month-old) wildtype and neurodegenerative mice, hippocampus and cerebral cortex, 10 mg/kg i.p., vs DMSO control) was 1.2 fold, the remaining activity at 20 µM (METTL21A; [2]) was 78.6% and the remaining activity at 20 µM (METTL21A; [3]) was 78.5%.
